Data reported in PubChem BioAssay (NCI).
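Tested at 5 concentrations; 48 h exposure; 96-well plates; endpoints linearly interpolated, else capped at highest concentration. Here, GI50 denotes the concentration required for 50% inhibition of growth. TGI: total growth inhibition.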

Experiments:
Test in all cases: inhibition of tumour cell growth, NCI panel, 48 h
A549 NSCLC = system: A549 NSCLC
IGROV1 ovarian = system: IGROV1 ovarian
CAKI-1 renal = system: CAKI-1 renal
NCI/ADR-RES ovarian = system: NCI/ADR-RES ovarian
SK-MEL-5 melanoma = system: SK-MEL-5 melanoma
UO-31 renal = system: UO-31 renal
CCRF-CEM leukemia = system: CCRF-CEM leukemia
SR leukemia = system: SR leukemia
OVCAR-8 ovarian = system: OVCAR-8 ovarian
COLO 205 colon = system: COLO 205 colon
SK-MEL-28 melanoma = system: SK-MEL-28 melanoma
U251 CNS = system: U251 CNS
UACC-62 melanoma = system: UACC-62 melanoma
OVCAR-5 ovarian = system: OVCAR-5 ovarian
ACHN renal = system: ACHN renal
MDA-MB-435 = system: MDA-MB-435
HCT-116 colon = system: HCT-116 colon
SF-295 CNS = system: SF-295 CNS
KM12 colon = system: KM12 colon
OVCAR-3 ovarian = system: OVCAR-3 ovarian
786-0 renal = system: 786-0 renal
NCI-H460 lung = system: NCI-H460 lung
MDA-MB-231 breast = system: MDA-MB-231 breast
K-562 leukemia = system: K-562 leukemia
SF-539 CNS = system: SF-539 CNS
TK-10 renal = system: TK-10 renal
NCI-H522 lung = system: NCI-H522 lung
LOX IMVI melanoma = system: LOX IMVI melanoma
RPMI-8226 leukemia = system: RPMI-8226 leukemia
BT-549 breast = system: BT-549 breast

**Q.** How did the GI50 (A549 NSCLC) turn out when `CC[C@@]12CC(C(=O)OC)=C3Nc4cc5c(cc4[C@@]34CCN(C[C@H]3O[C@H]31)[C@@H]24)[C@@H]1[C@H](O5)[C@@H](O)[C@@]2(CC)CC(C(=O)OC)=C3Nc4cc(OC)ccc4[C@@]34CCN1[C@@H]24` was run?
**A.** 0.706 µM

**Q.** What about the TGI (A549 NSCLC) of the same compound?
**A.** > 54 µM

**Q.** What about the GI50 (IGROV1 ovarian) of the same compound?
**A.** 0.548 µM

**Q.** What about the TGI (IGROV1 ovarian) of the same compound?
**A.** > 22.8 µM

**Q.** What about the GI50 (CAKI-1 renal) of the same compound?
**A.** 0.142 µM

**Q.** And the TGI (CAKI-1 renal)?
**A.** > 54 µM

**Q.** What about the GI50 (NCI/ADR-RES ovarian) of the same compound?
**A.** 0.731 µM

**Q.** What about the TGI (NCI/ADR-RES ovarian) of the same compound?
**A.** 20.7 µM

**Q.** What about the GI50 (SK-MEL-5 melanoma) of the same compound?
**A.** 0.37 µM

**Q.** And the TGI (SK-MEL-5 melanoma)?
**A.** 2.29 µM

**Q.** And the GI50 (UO-31 renal)?
**A.** 0.167 µM

**Q.** And the TGI (UO-31 renal)?
**A.** > 26 µM

**Q.** And the GI50 (CCRF-CEM leukemia)?
**A.** 0.376 µM

**Q.** What about the TGI (CCRF-CEM leukemia) of the same compound?
**A.** > 54 µM

**Q.** And the GI50 (SR leukemia)?
**A.** 0.254 µM

**Q.** And the TGI (SR leukemia)?
**A.** > 46.5 µM

**Q.** What about the GI50 (OVCAR-8 ovarian) of the same compound?
**A.** 0.736 µM

**Q.** What about the TGI (OVCAR-8 ovarian) of the same compound?
**A.** > 54 µM

**Q.** And the GI50 (COLO 205 colon)?
**A.** 0.356 µM

**Q.** What about the TGI (COLO 205 colon) of the same compound?
**A.** 2.77 µM

**Q.** And the GI50 (SK-MEL-28 melanoma)?
**A.** 1.38 µM

**Q.** What about the TGI (SK-MEL-28 melanoma) of the same compound?
**A.** > 54 µM

**Q.** What about the GI50 (U251 CNS) of the same compound?
**A.** 0.911 µM

**Q.** And the TGI (U251 CNS)?
**A.** > 54 µM

**Q.** What about the GI50 (UACC-62 melanoma) of the same compound?
**A.** 0.168 µM

**Q.** And the TGI (UACC-62 melanoma)?
**A.** 3.83 µM

**Q.** What about the GI50 (OVCAR-5 ovarian) of the same compound?
**A.** 1.52 µM

**Q.** What about the TGI (OVCAR-5 ovarian) of the same compound?
**A.** > 54 µM

**Q.** What about the GI50 (ACHN renal) of the same compound?
**A.** 0.727 µM

**Q.** And the TGI (ACHN renal)?
**A.** 15.2 µM

**Q.** And the GI50 (MDA-MB-435)?
**A.** 0.32 µM

**Q.** What about the TGI (MDA-MB-435) of the same compound?
**A.** > 54 µM

**Q.** And the GI50 (HCT-116 colon)?
**A.** 0.253 µM

**Q.** What about the TGI (HCT-116 colon) of the same compound?
**A.** 2.93 µM

**Q.** What about the GI50 (SF-295 CNS) of the same compound?
**A.** 0.891 µM

**Q.** What about the TGI (SF-295 CNS) of the same compound?
**A.** > 44.7 µM

**Q.** And the GI50 (KM12 colon)?
**A.** 0.939 µM

**Q.** What about the TGI (KM12 colon) of the same compound?
**A.** > 54 µM

**Q.** What about the GI50 (OVCAR-3 ovarian) of the same compound?
**A.** 0.453 µM

**Q.** And the TGI (OVCAR-3 ovarian)?
**A.** 13.4 µM

**Q.** And the GI50 (786-0 renal)?
**A.** 0.267 µM

**Q.** And the TGI (786-0 renal)?
**A.** > 54 µM

**Q.** And the GI50 (NCI-H460 lung)?
**A.** 1.37 µM

**Q.** And the TGI (NCI-H460 lung)?
**A.** > 54 µM

**Q.** And the GI50 (MDA-MB-231 breast)?
**A.** 0.33 µM

**Q.** What about the TGI (MDA-MB-231 breast) of the same compound?
**A.** > 40.3 µM

**Q.** What about the GI50 (K-562 leukemia) of the same compound?
**A.** 0.218 µM

**Q.** What about the TGI (K-562 leukemia) of the same compound?
**A.** > 54 µM

**Q.** And the GI50 (SF-539 CNS)?
**A.** 0.416 µM

**Q.** What about the TGI (SF-539 CNS) of the same compound?
**A.** > 54 µM

**Q.** What about the GI50 (TK-10 renal) of the same compound?
**A.** 0.219 µM

**Q.** What about the TGI (TK-10 renal) of the same compound?
**A.** 52.3 µM

**Q.** And the GI50 (NCI-H522 lung)?
**A.** 0.182 µM

**Q.** And the TGI (NCI-H522 lung)?
**A.** 2.84 µM

**Q.** And the GI50 (LOX IMVI melanoma)?
**A.** 0.273 µM

**Q.** And the TGI (LOX IMVI melanoma)?
**A.** 1.25 µM

**Q.** What about the GI50 (RPMI-8226 leukemia) of the same compound?
**A.** 0.136 µM

**Q.** What about the TGI (RPMI-8226 leukemia) of the same compound?
**A.** 2.21 µM

**Q.** What about the GI50 (BT-549 breast) of the same compound?
**A.** 0.307 µM
